Data reported in PubChem BioAssay (NCI).
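The compound was tested at five concentrations on cells cultured in 96-well plates, with a 48-hour exposure period. The concentration for full growth arrest is given as TGI.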

How the values were obtained:
Experiment in all cases: growth of human tumour cells (NCI), 48 h
SW-620 colon = system: SW-620 colon
SK-MEL-5 melanoma = system: SK-MEL-5 melanoma
NCI-H460 lung = system: NCI-H460 lung
CCRF-CEM leukemia = system: CCRF-CEM leukemia
UACC-62 melanoma = system: UACC-62 melanoma
HCT-15 colon = system: HCT-15 colon
HT29 colon = system: HT29 colon
SF-539 CNS = system: SF-539 CNS
MDA-N = system: MDA-N
BT-549 breast = system: BT-549 breast
MCF7 breast = system: MCF7 breast
SK-OV-3 ovarian = system: SK-OV-3 ovarian
SK-MEL-28 melanoma = system: SK-MEL-28 melanoma

| Compound | TGI (SW-620 colon) [µM] | TGI (SK-MEL-5 melanoma) [µM] | TGI (NCI-H460 lung) [µM] | TGI (CCRF-CEM leukemia) [µM] | TGI (UACC-62 melanoma) [µM] | TGI (HCT-15 colon) [µM] | TGI (HT29 colon) [µM] | TGI (SF-539 CNS) [µM] | TGI (MDA-N) [µM] | TGI (BT-549 breast) [µM] | TGI (MCF7 breast) [µM] | TGI (SK-OV-3 ovarian) [µM] | TGI (SK-MEL-28 melanoma) [µM] |
| --- | --- | --- | --- | --- | --- | --- | --- | --- | --- | --- | --- | --- | --- |
| Nc1c(C(=O)O)nnc2cc(Cl)ccc12 | > 100 | > 100 | > 100 | > 100 | > 100 | > 100 | > 100 | > 100 | > 100 | > 100 | > 100 | > 100 | – |
| Cc1nccn1S(=O)(=O)c1ccc(Cl)cc1 | > 100 | > 100 | > 100 | > 100 | > 100 | > 100 | > 100 | > 100 | 51 | > 100 | > 100 | > 100 | > 100 |
| C=C1CC(O)C2C(=C)C(=O)OC2C2C(C)C(=O)CC12 (stereo not given) | 30.7 | 47 | 58 | 41.4 | 29.1 | 17.1 | 42.8 | 54.2 | 20.3 | 21.5 | 26.2 | > 100 | 46.5 |
| O=C(CN1CCN(c2ccccn2)CC1)N1CCCn2c1nc1ccccc1c2=O | > 100 | > 100 | > 100 | > 100 | > 100 | > 100 | > 100 | > 100 | > 100 | > 100 | > 100 | > 100 | – |
| Clc1ncnc2c1nc(C#Cc1ccccc1)n2C1CCCCO1 (stereo not given) | 4.94 | 5.06 | 8.09 | > 100 | 5.84 | – | 3.98 | 4.28 | 8.12 | 4.1 | 3.22 | 21.3 | 4.78 |
| CC1C(c2ccccc2)NC(c2ccccc2)CC1(N)C#N (stereo not given) | > 100 | > 100 | > 100 | > 100 | > 100 | > 100 | > 100 | > 100 | > 100 | > 100 | > 100 | > 100 | > 100 |
| OCC(S)CS.[Bi] (stereo not given) | > 100 | > 100 | > 100 | 5.22 | 38.5 | 50.7 | 46.4 | > 100 | 34.4 | 27.8 | > 100 | > 100 | 28.3 |
| Nc1ccn(CC(O)c2cc3ccccc3[nH]2)c(=O)n1 (stereo not given) | > 100 | > 100 | > 100 | > 100 | > 100 | > 100 | > 100 | > 100 | > 100 | > 100 | > 100 | > 100 | > 100 |
| CCC(C)N1CN(c2ccccc2)C2(CCN(CCCC3(c4ccc(F)cc4)OCCO3)CC2)C1=O (stereo not given) | 28.8 | 8.24 | 30.8 | 15.3 | > 55.2 | 10.8 | > 37.5 | 10.1 | 17.9 | 5.82 | 7.58 | 56 | 34.4 |
| CCCCOc1ccc(S(=O)(=O)/N=C(\NO)Nc2ccc(Cl)cc2)cc1 | 40.3 | 28.1 | 32.7 | 62.1 | 28.8 | 30.4 | 32.6 | 37 | 31.6 | 26.7 | 28.8 | – | 36.1 |
| O=C(O)C1CSC2(CCCN(Cc3ccccc3)C2)N1 (stereo not given) | > 100 | > 100 | > 100 | > 79.6 | > 100 | > 100 | > 100 | > 100 | > 100 | > 100 | > 100 | > 100 | > 100 |
| Cc1ccc(S(=O)(=O)NC(=O)NC(CC(=O)O)C(=O)O)cc1 (stereo not given) | > 100 | > 100 | > 100 | > 100 | > 100 | > 100 | > 100 | > 100 | > 100 | > 100 | > 100 | > 100 | > 100 |
| O=C(NNc1nc(-c2ccccc2)cs1)Nc1ccccc1 | > 100 | 38.2 | 50.6 | > 100 | 40.2 | 74.4 | 76.2 | – | 65.8 | 60.9 | 62.8 | 52.2 | 85.6 |
| O=C1Nc2ccccc2SC1=C(C(=O)c1ccccc1)C(=O)c1ccccc1 | > 100 | > 100 | > 86.8 | 77.4 | 51.6 | > 100 | > 100 | > 100 | 48.8 | > 90.2 | > 100 | 65.3 | > 100 |
| CSc1c(C)n([O-])c2cc(Cl)c(Cl)cc2[n+]1=O | 42.9 | 34.3 | > 100 | 4.58 | 28.9 | 49.6 | 33.7 | > 100 | 33.9 | 32.7 | 45 | > 100 | 39 |
